In US20230144824A1, “1H-PYRAZOLO[4,3-d]PYRIMIDINE COMPOUNDS AS TOLL-LIKE RECEPTOR 7 (TLR7) AGONISTS” (BRISTOL-MYERS SQUIBB COMPANY, priority 2020, published 2023):
Where two headings read alike, the source gives them in different places.

Columns and labels:
[1] = target: T1, human TLR7 (Homo sapiens, UniProt Q9NYK1); assay: Human TLR7 agonist activity assay (HEK-Blue TLR7 SEAP reporter); assay type: cell-based; details: HEK-Blue TLR7 cells, 18 h treatment, average where assay performed multiple times, read-out: hTLR7 Agonism EC50
T1 construct: host or cells: HEK-Blue TLR7 cells (engineered human embryonic kidney cells)
T1 sequence (Q9NYK1 27-1049): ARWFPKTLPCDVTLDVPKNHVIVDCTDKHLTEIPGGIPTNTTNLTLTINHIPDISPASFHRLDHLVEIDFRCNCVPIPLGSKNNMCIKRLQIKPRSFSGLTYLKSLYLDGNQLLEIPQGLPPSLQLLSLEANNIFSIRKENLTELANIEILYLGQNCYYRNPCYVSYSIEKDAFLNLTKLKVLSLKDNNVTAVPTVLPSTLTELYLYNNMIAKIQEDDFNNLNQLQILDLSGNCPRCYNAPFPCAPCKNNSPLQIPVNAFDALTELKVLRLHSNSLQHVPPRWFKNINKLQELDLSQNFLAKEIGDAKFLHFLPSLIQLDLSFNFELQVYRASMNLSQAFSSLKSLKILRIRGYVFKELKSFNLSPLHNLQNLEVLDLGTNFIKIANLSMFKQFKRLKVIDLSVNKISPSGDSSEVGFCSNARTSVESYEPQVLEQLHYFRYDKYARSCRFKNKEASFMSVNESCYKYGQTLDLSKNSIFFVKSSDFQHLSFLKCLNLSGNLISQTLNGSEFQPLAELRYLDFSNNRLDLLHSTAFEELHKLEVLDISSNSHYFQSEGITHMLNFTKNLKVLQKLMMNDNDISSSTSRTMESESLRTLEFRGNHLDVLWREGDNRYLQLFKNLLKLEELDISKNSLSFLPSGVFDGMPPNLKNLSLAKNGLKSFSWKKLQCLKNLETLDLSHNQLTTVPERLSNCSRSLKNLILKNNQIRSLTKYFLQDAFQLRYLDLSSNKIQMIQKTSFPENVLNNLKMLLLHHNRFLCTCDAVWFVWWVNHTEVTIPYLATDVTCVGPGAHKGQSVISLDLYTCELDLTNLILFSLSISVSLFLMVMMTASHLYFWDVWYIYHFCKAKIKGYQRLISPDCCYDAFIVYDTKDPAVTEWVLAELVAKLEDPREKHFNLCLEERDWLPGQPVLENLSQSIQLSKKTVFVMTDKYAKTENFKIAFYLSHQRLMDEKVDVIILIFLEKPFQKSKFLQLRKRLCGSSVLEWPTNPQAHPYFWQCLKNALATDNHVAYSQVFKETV
In short: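 HEK-Blue TLR7 cells (15,000/well) treated with compound for 18 h at 37 °C, 5% CO2. Secreted SEAP measured with Quanti-Blue, 30 min, OD 620 nm. EC50 taken as concentration giving half-maximal response between baseline and maximum.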

[2] = system: CD69; assay: Induction of CD69 in human whole blood; assay type: cell-based; details: 100% set to 1 uM of resiquimod, average where assay performed multiple times, read-out: hWB CD69 EC50
In short: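 Heparinized human whole blood treated with TLR7 agonist at final 1 uM and incubated 17 h at 37° C. CD69 surface staining alongside CD14 and CD19, then fix/lysis and flow cytometry on iQuePlus. Curves fitted with 1 uM resiquimod set as 100%.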

| SMILES | EC50 [1] [nM] | EC50 ([2]; Homo sapiens, 17 h) [nM] | EC50 ([2]; 17 hrs) [nM] |
| --- | --- | --- | --- |
| CCC[C@@H](CCO)Nc1nc(N)nc2cnn(Cc3nnc(C4CCN(C(C)C)CC4)cc3OC)c12 [Compound 177, (3S)-3-{[5-amino-1-({4-methoxy-6-[1-(propan-2-yl)piperidin-4-yl]pyridazin-3-yl}methyl)-1H-pyrazolo[4,3-d]pyrimidin-7-yl]amino}hexan-1-ol] | 579 | 9.9 |  |
| CCC[C@@H](CCO)Nc1nc(N)nc2cnn(Cc3ncc(C4CCCN4)cc3OC)c12 (stereo partly drawn) [Compound 178, (3S)-3-[(5-amino-1-{[3-methoxy-5-(pyrrolidin-2-yl)pyridin-2-yl]methyl}-1H-pyrazolo[4,3-d]pyrimidin-7-yl)amino]hexan-1-ol] | 279 | 2 |  |
| CCC[C@@H](CCO)Nc1nc(N)nc2cnn(Cc3ncc(C4CCCCN4)cc3OC)c12 (stereo partly drawn) [Compound 179, (3S)-3-[(5-amino-1-{[3-methoxy-5-(piperidin-2-yl)pyridin-2-yl]methyl}-1H-pyrazolo[4,3-d]pyrimidin-7-yl)amino]hexan-1-ol] | 235 | 2.8 |  |
| CCC[C@@H](CCO)Nc1nc(N)nc2cnn(Cc3ccc(C4CNCCN4)cc3OC)c12 (stereo partly drawn) [Compound 180, (3S)-3-[(5-amino-1-{[2-methoxy-4-(piperazin-2-yl)phenyl]methyl}-1H-pyrazolo[4,3-d]pyrimidin-7-yl)amino]hexan-1-ol] | 67.9 | 7.2 |  |
| CCC[C@@H](CCO)Nc1nc(N)nc2cnn(Cc3ccc(C4CN(CCO)CCN4)cc3OC)c12 (stereo partly drawn) [Compound 181, (3S)-3-{[5-amino-1-({4-[4-(2-hydroxyethyl)piperazin-2-yl]-2-methoxyphenyl}methyl)-1H-pyrazolo[4,3-d]pyrimidin-7-yl]amino}hexan-1-ol] | 139 | 4.57 |  |
| CCC[C@@H](CCO)Nc1nc(N)nc2cnn(Cc3nc(C4CCNCC4)ccc3OC)c12 [Compound 186, (3S)-3-[(5-amino-1-{[3-methoxy-6-(piperidin-4-yl)pyridin-2-yl]methyl}-1H-pyrazolo[4,3-d]pyrimidin-7-yl)amino]hexan-1-ol] | 1650 | 242 |  |
| CCC[C@@H](CCO)Nc1nc(N)nc2cnn(Cc3nc(C4CCN(C(=O)CN(C)C)CC4)ccc3OC)c12 [Compound 187, 1-(4-{6-[(5-amino-7-{[(3S)-1-hydroxyhexan-3-yl]amino}-1H-pyrazolo[4,3-d]pyrimidin-1-yl)methyl]-5-methoxypyridin-2-yl}piperidin-1-yl)-2-(dimethylamino)ethan-1-one] | 402 | 80.5 |  |
| CCC[C@@H](CCO)Nc1nc(N)nc2cnn(Cc3nc(C4CCN(CCO)CC4)ccc3OC)c12 [Compound 188, (3S)-3-{[5-amino-1-({6-[1-(2-hydroxyethyl)piperidin-4-yl]-3-methoxypyridin-2-yl}methyl)-1H-pyrazolo[4,3-d]pyrimidin-7-yl]amino}hexan-1-ol] | 290 | 83.7 |  |
| CCC[C@@H](CCO)Nc1nc(N)nc2cnn(Cc3nc(C4CCN(C5CCOCC5)CC4)ccc3OC)c12 [Compound 189, (3S)-3-{[5-amino-1-({3-methoxy-6-[1-(oxan-4-yl)piperidin-4-yl]pyridin-2-yl}methyl)-1H-pyrazolo[4,3-d]pyrimidin-7-yl]amino}hexan-1-ol] | 85.3 | 9.8 |  |
| CCC[C@@H](CCO)Nc1nc(N)nc2cnn(Cc3nc(C4CCN(C(C)C)CC4)ccc3OC)c12 [Compound 190, (3S)-3-{[5-amino-1-({3-methoxy-6-[1-(propan-2-yl)piperidin-4-yl]pyridin-2-yl}methyl)-1H-pyrazolo[4,3-d]pyrimidin-7-yl]amino}hexan-1-ol] | 175 | 26.7 |  |
| CCC[C@@H](CCO)Nc1nc(N)nc2cnn(Cc3nc(C4CCN(C)CC4)ccc3OC)c12 [Compound 191, (3S)-3-[(5-amino-1-{[3-methoxy-6-(1-methylpiperidin-4-yl)pyridin-2-yl]methyl}-1H-pyrazolo[4,3-d]pyrimidin-7-yl)amino]hexan-1-ol] | 221 | 35.8 |  |
| CCCCNc1nc(N)nc2cnn(Cc3cc(F)c(N4CCNCC4)cc3OC)c12 [Compound 192, N7-butyl-1-{[5-fluoro-2-methoxy-4-(piperazin-1-yl)phenyl]methyl}-1H-pyrazolo[4,3-d]pyrimidine-5,7-diamine] | 193 | 58.2 |  |
| CCCCNc1nc(N)nc2cnn(Cc3cc(F)c(N4CCN(S(C)(=O)=O)CC4)cc3OC)c12 [Compound 193, N7-butyl-1-{[5-fluoro-4-(4-methanesulfonylpiperazin-1-yl)-2-methoxyphenyl]methyl}-1H-pyrazolo[4,3-d]pyrimidine-5,7-diamine] | 84.9 | 529 |  |
| CCCCNc1nc(N)nc2cnn(Cc3cc(F)c(N4CCN(C(=O)CN5CC(OC)C5)CC4)cc3OC)c12 [Compound 194, 1-[4-(4-{[5-amino-7-(butylamino)-1H-pyrazolo[4,3-d]pyrimidin-1-yl]methyl}-2-fluoro-5-methoxyphenyl)piperazin-1-yl]-2-(3-methoxyazetidin-1-yl)ethan-1-one] | 63.1 | 37.1 |  |

Now those with a lower EC50 [1], led by results:

| EC50 [1] [nM] | EC50 ([2]; Homo sapiens, 17 h) [nM] | EC50 ([2]; 17 hrs) [nM] | SMILES |
| --- | --- | --- | --- |
| 11 | 2.9 |  | CCC[C@@H](CCO)Nc1nc(N)nc2cnn(Cc3cnc(C4CCN(C)CC4)cc3OC)c12 [Compound 174, (3S)-3-[(5-amino-1-{[4-methoxy-6-(1-methylpiperidin-4-yl)pyridin-3-yl]methyl}-1H-pyrazolo[4,3-d]pyrimidin-7-yl)amino]hexan-1-ol] |
| 8.8 | 0.91 |  | CCC[C@@H](CCO)Nc1nc(N)nc2cnn(Cc3ccc(C4CCCN4)cc3OC)c12 (stereo partly drawn) [Compound 175, (3S)-3-[(5-amino-1-{[2-methoxy-4-(pyrrolidin-2-yl)phenyl]methyl}-1H-pyrazolo[4,3-d]pyrimidin-7-yl)amino]hexan-1-ol] |
| 4.8 | 0.21 |  | CCC[C@@H](CCO)Nc1nc(N)nc2cnn(Cc3cnc(C4CCN(CC(C)(C)O)CC4)cc3OC)c12 [Compound 176, (3S)-3-{[5-amino-1-({6-[1-(2-hydroxy-2-methylpropyl)piperidin-4-yl]-4-methoxypyridin-3-yl}methyl)-1H-pyrazolo[4,3-d]pyrimidin-7-yl]amino}hexan-1-ol] |
| 6.8 | 0.28 |  | CCC[C@@H](CCO)Nc1nc(N)nc2cnn(Cc3ccc(C4CN(C(C)C)CCN4)cc3OC)c12 (stereo partly drawn) [Compound 182, (3S)-3-{[5-amino-1-({2-methoxy-4-[4-(propan-2-yl)piperazin-2-yl]phenyl}methyl)-1H-pyrazolo[4,3-d]pyrimidin-7-yl]amino}hexan-1-ol] |
| 6.5 |  | 0.15 | CCC[C@@H](CCO)Nc1nc(N)nc2cnn(Cc3ccc(C4CN(C(C)C)CCN4)cc3OC)c12 (stereo partly drawn) [Compound 184, (3S)-3-{[5-amino-1-({2-methoxy-4-[4-(propan-2-yl)piperazin-2-yl]phenyl}methyl)-1H-pyrazolo[4,3-d]pyrimidin-7-yl]amino}hexan-1-ol] |
| 53.3 | 128 |  | CCCCNc1nc(N)nc2cnn(Cc3cc(F)c(N4CCN(C(=O)CNC5CCOCC5)CC4)cc3OC)c12 [Compound 195, 1-[4-(4-{[5-amino-7-(butylamino)-1H-pyrazolo[4,3-d]pyrimidin-1-yl]methyl}-2-fluoro-5-methoxyphenyl)piperazin-1-yl]-2-[(oxan-4-yl)amino]ethan-1-one] |
